Data on 2 compounds can be found in patent US20240182333A1, “METHODS OF TREATING COMPOUNDS USING VISIBLE LIGHT-ENABLED ACTIVATION OF PEROXYDISULFATE” (THE TEXAS A&M UNIVERSITY SYSTEM, priority 2022, published 2024).

For data set [1] the following is noted: reported; cited from earlier work.
Data set [2] in a line: Quenching, anoxic and D2O experiments of ATZ degradation by PDS. It counts as physicochemical. The method, then: In order to identify the main reactive species involved in the degradation of ATZ by PDS under light and in dark, four quenchers were added in the beginning of the reactions to scavenge possible reactive species. The concentration of MeOH, tert-butanol (TBA), and L-histidine (L-his) was 0.5 M, and the concentration of superoxide dismutase (SOD) was 50 U·ml^−1. To analyze the impact of oxygen, purified N2 gas was used to purge the system for 10 min before the quenching experiments. All tubes were capped and then sealed with parafilm to maintain an anoxic environment throughout the reaction. The ATZ concentrations in the samples taken at various time points (t=0, 5, 10, 30, 60, 120, and 240 min) were measured using HPLC. The degradation of ATZ was also repeated with D2O as the solvent for phosphate buffer with the same experimental setups.

The nature of data set [3]: Degradation of compounds by PDS in dark and under visible light (HPLC). It counts as physicochemical. The note with it: for pseudo-first-order rate constant kobs of ATZ degradation: [ATZ]0=10.0 μM, [PDS]0=5.0 mM, pH0=7.0, 25° C. The method, then:
Various reactions were carried out in 40 mL glass tubes with constant stirring at 300 rpm at 25±0.5° C. The temperature of solutions was monitored using a thermometer throughout the experiments. The initial concentration of atrazine (ATZ) was 10.0 uM, and the initial concentration of PDS was 5.0 mM. The irradiation fluxes emitted from the lamp and received by the solutions were measured with a LS125 UV light meter (Linshang Technology, Shenzhen, China) and a Solar Light PMA2100 radiometer (Solar Light Company, Philadelphia,
(§1) USA) 10 cm away from the lamp. The tubes in the dark treatments were covered with aluminum foil. To further confirm the PDS activation by visible light, experiments were also conducted with a UV filter film covering the simulated sunlight lamp to eliminate the effect of UV light. 1.0 mL of sample was withdrawn from each tube at different elapsed times (t=0, 1, 2, 3, 4, 5, 10, 20, 30, 60, 90, 120, and 240 min) and immediately quenched by 20 μL of 5.0 M sodium thiosulfate. The concentrations of all compositions in collected samples were measured with a Dionex UltiMate 3000 high-performance liquid chromatograph (HPLC) (Sunnyvale, USA). The settings of HPLC are provided in Example 1. The change in the concentration of PDS under different conditions was determined spectrophotometrically via an oxidation decolorization method and a modified iodometric titration method, respectively. The initial and final pH in each tube were measured with an Accumet AE150 pH meter (Westford, USA).
A simulated sunlight lamp was used as the light source in the instant example. The light fluxes that reaction solutions received in glass vials contained 39.8±0.5×10^−3 W/cm^2 of visible light in the wavelength (λ) range of 400-700 nm. The fluxes in the UV ranges contained 8.1±0.2×10^−6 W/cm^2 of UV-A (λ=315-400 nm) and 2.5±0.4×10^−6 W/cm^2 of UV-B (λ=280-315 nm), respectively. The UV-C flux (λ=230-280 nm) was negligible. Based on the flux measurement, UV light only accounted for <0.03% of the total light flux, and thus the light source utilized herein represents almost exclusively the visible light. The chemistry of PDS with visible light irradiation (PDS Light) and without (PDS Dark) was explored using six common herbicides and pharmaceuticals, namely atrazine (ATZ), sulfamethoxazole (SMX), trimethoprim (TMP), sulfadimethoxine (SDM), ibuprofen (IBP), and carbamazepine (CMZ) (FIGS. 1A-1F).

Data set [4] is described as follows: Decay of PDS in dark and under visible light. It counts as physicochemical. Particulars: for PDS decayed: within 240 min, regardless of the phosphate. The method, then: as §1
In order to verify whether PDS was directly activated by visible light, the impacts of solution constituents were examined. Because 10 mM phosphate buffer was added to control the initial pH to 7.0 to take into account of the typical pH of natural waters, the impact of phosphate buffer on the decay of PDS was investigated. […] Approximately 20% and 90% of PDS decayed within 240 min in dark and under visible light, respectively, regardless of the phosphate.

On to `CCNc1nc(Cl)nc(NC(C)C)n1` [ATZ, 2-chloro-4-ethylamino-6-isopropylamino-s-triazine], for which, in data set [1], the “k(SO4^●−/ATZ)” value was 2.6−4.2×10^9 M^−1·s^−1. Further, the “ATZ degradation by PDS Light in presence of L-his” value in data set [2] (L-his 0.5 M) is recorded as “almost completely inhibited”. The “effect of D2O on rate constant of ATZ degradation” value in data set [2] (PDS Dark) is reported as “negligible”. In addition, the “pseudo-first-order rate constant for ATZ degradation in D2O relative to water” value in data set [2] (PDS Light) is “more than 2.5 times”. The “pseudo-first-order rate constant kobs of ATZ degradation” value is given as 7.3±0.9×10^−2 min^−1 in data set [2] (PDS Light, anoxic condition (N2 purging), without scavengers); 0.72±0.09×10^−2 min^−1 in data set [3] (PDS Dark); 11±3.0×10^−2 min^−1 in data set [3] (PDS Light, oxic). Moreover, the “ATZ degradation by PDS Light in presence of scavengers” value in data set [2] (all four scavengers (MeOH, TBA, L-his 0.5 M; SOD 50 U·ml^−1)) is “significantly hindered”. Also, in data set [3] (PDS Dark, within 30 min), the ATZ degraded is reported as 37%. Also, the “pseudo-first-order rate constants of ATZ degradation with UV filter versus without UV filter” value in data set [3] (PDS Light, UV filter film between lamp and vials) is “not statistically different”. Also, the “degradation of ATZ” value in data set [3] (PDS Light, in 30 min) is “complete degradation”.

Take `O=S(=O)([O-])OOS(=O)(=O)[O-].[K+].[K+]` [PDS, Potassium peroxydisulfate]: in data set [4] (based on the rate constant of PDS decay in dark and under light), the “rate constant for R1 (photolysis of PDS by light)” value was “around 8.8±1.1×10^−3 min^−1”. For the same compound, the PDS decayed entry in data set [4] (in dark) is listed as “Approximately 20%”; in data set [4] (under visible light), roughly 90%.
